According to paper PMC8262356, “SLC26A6-selective inhibitor identified in a small-molecule screen blocks fluid absorption in small intestine” (JCI Insight, 2021):

How the values were obtained:
PAT1 (murine slc26a6) [1] = molecular target: T1, PAT1 (murine slc26a6) (Mus musculus, UniProt Q8CIW6); test: PAT1-mediated Cl-/SCN- exchange, YFP fluorescence quenching in FRT cells; format: cell-based; details: read-out: IC50, inhibition of PAT1-mediated Cl-/SCN- exchange
T1 construct: host or cells: Fischer rat thyroid (FRT) cells, lentiviral transduction (pLVX-IRES-mCherry-slc26a6), clonal line FRT-YFP-slc26a6
T1 sequence (Q8CIW6 24-758 limits assumed): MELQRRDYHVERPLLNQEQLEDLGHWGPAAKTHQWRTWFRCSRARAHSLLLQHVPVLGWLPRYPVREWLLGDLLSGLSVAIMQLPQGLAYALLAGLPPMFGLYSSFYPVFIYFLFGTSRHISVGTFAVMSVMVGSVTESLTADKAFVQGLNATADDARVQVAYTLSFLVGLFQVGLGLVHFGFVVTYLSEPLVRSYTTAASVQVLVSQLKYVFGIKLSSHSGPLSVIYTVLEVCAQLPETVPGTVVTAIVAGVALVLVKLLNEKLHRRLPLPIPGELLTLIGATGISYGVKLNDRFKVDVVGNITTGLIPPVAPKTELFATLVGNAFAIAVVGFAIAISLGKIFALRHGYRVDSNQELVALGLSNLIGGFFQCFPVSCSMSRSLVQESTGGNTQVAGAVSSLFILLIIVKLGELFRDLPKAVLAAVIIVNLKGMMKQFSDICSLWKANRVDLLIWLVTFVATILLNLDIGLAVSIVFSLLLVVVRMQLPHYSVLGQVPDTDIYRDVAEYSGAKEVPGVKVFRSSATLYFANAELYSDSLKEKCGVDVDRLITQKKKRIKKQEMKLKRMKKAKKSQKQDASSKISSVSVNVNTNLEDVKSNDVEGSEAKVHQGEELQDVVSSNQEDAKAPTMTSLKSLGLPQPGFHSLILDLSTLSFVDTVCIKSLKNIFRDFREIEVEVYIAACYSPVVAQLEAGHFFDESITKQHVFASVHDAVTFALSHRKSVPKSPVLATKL
Experimental: (§1) As PAT1 functions as a general monovalent anion exchanger, PAT1inh-B01 inhibition was studied for different modes of anion exchange. […] To measure Cl^–/HCO3^– exchange, the time course of cytoplasmic pH was measured, using BCECF as a pH indicator, in response to a gluconate gradient to drive exchange of cytoplasmic Cl^– with extracellular HCO3^– producing cytoplasmic alkalinization (Figure 2B) as done before for DRA and pendrin ([7], [10], [11]).
Figure 2 PAT1inh-B01 inhibition of PAT1-mediated anion exchange. (A) YFP fluorescence quenching curves (left), as in Figure 1B, for inhibition of PAT1-mediated exchange of Cl^– for SCN^–, with concentration dependence of PAT1inh-B01 effect (right) (mean ± SEM, n = 3). (B) Inhibition of Cl^–/HCO3^– exchange measured in BCECF-loaded FRT cells by PAT1inh-B01 (mean ± SEM, n = 16–32). (C) Time course of PAT1 inhibition following addition of 1 μM PAT1inh-B01 to cells (mean ± SEM, n = 3). (D) Effects of second messenger signaling on PAT1-mediated Cl^–/I^– exchange. YFP fluorescence quenching curves (left) and summary data (right) following cell exposure to agonists of cAMP (20 μM forskolin + 200 μM IBMX), cGMP (100 μM 8-Br-cGMP) and Ca^+2 (100 μM ATP), or vehicle control (1% DMSO). Mean ± SEM, n = 16 experiments per group, differences not significant by 1-way ANOVA and post hoc Newman-Keuls multiple comparisons test.

PAT1 (murine slc26a6) [2] = molecular target: T1, PAT1 (murine slc26a6); test: PAT1-mediated Cl-/HCO3- exchange, cytoplasmic pH in BCECF-loaded FRT cells; format: cell-based; details: read-out: IC50, inhibition of Cl-/HCO3- exchange
Experimental: as §1
YFP-based cellular assays of slc26a3, slc26a4, SLC26A9, and TMEM16A function were performed as described previously ([7]). Slc26a1 and slc26a2 assays were done in transfected HEK 293 cells (see Supplemental Methods for details). Niflumic acid was used as a positive control for SLC26A isoforms ([7]). For TMEM16A, the selective small-molecule inhibitor TMinh-23 was used as a positive control ([28]). The activities of ENaC, CFTR, and CaCC were determined using well-differentiated HBE cells as described previously ([13]). Cl^–/HCO3^– exchange was measured as described previously ([7], [10], [11]). Briefly, cell cytoplasm was labeled with the pH-sensitive fluorescent dye BCECF-AM (Invitrogen), and Cl^–/HCO3^– exchange was measured in response to addition of a gluconate-containing solution to drive exchange of cytoplasmic Cl^– for extracellular HCO3^–, producing cytoplasmic alkalinization.

mouse ileal closed loops = test: Closed ileal loop fluid absorption; format: in vivo
Experimental: For fluid absorption studies in small intestine, mice were given free access to 5% dextrose in water but not solid food for 24 hours before experiments. Closed midjejunal and ileal loops were prepared and isolated as described previously ([29]). Mice were anesthetized with isoflurane, and body temperature was maintained during surgery at 36°C–38°C using a heating pad. A small abdominal incision was made to expose small intestine for isolation of 3–4 closed small intestinal loops (jejunum or ileum, length 2–3 cm) with sutures. Loops were injected with 100 μL PBS (pH 7.4, 137 mM NaCl, 2.7 mM KCl, 8 mM Na2HPO4, 1.8 mM KH2PO4, 1 mM CaCl2, 0.5 mM MgCl2) containing 30 μM PAT1inh-B01, 10 μM DRAinh-A270, or 10 μM tenapanor (MedChemExpress) (or vehicle, 0.1% DMSO in PBS). In some experiments, 30 μM PAT1inh-B01 and 10 μM DRAinh-A270 were used together. In some experiments to rule out effects of sodium-dependent phosphate transport, the loop lumen contained HEPES-buffered saline (pH 7.4, 137 mM NaCl, 4.5 mM KCl, 10 mM HEPES, 1 mM CaCl2, 0.5 mM MgCl2). The abdominal incision was closed with sutures, and mice were allowed to recover from anesthesia. Intestinal loops were removed at 0 and 30 minutes (in separate mice), and loop length and weight were measured to quantify fluid absorption. In parallel experiments, CF mice were used and loop studies were done as described above. In some experiments, loop fluid was emptied with a syringe, and pH was measured immediately using AB15 pH meter after brief centrifugation at 2000 g for 5 minutes at 4°C.

IC50 (PAT1 (murine slc26a6) [1]): 0.26 µM
IC50 (PAT1 (murine slc26a6) [2]): 0.29 µM
Structure (SMILES): Cc1c(Br)c(C(F)(F)F)nn1CC(=O)N1CCc2nc3cc(-c4ccccc4)[nH]n3c(=O)c2C1 [PAT1inh-B01]
effect on ileal fluid absorption (loop weight-to-length ratio) (mouse ileal closed loops; 30 μM luminal, 30 minutes, PBS): fully blocked
effect on increase of ileal loop fluid pH (mouse ileal closed loops; 30 minutes after injection of PBS (pH 7.4), control pH greater than 8.0): prevented
effect on ileal fluid absorption in absence of luminal phosphate (mouse ileal closed loops; HEPES-buffered saline): effectively blocked
block of fluid absorption in ileal loops (mouse ileal closed loops; ileal loops (abstract)): > 80%
